{
  "source": "patent US20100183629A1",
  "about": "“ANTAGONISTS OF ENDOTHELIAL DIFFERENTIATION GENE SUBFAMILY 3 (EDG-3, S1P3) RECEPTORS FOR PREVENTION AND TREATMENT OF OCULAR DISORDERS” (ALCON RESEARCH, LTD., priority 2006, published 2010)",
  "molecular_target": "T1, Edg3 receptor (Homo sapiens, UniProt Q99500)",
  "T1 construct": "endogenous in cells; host or cells: cultured human trabecular meshwork (TM) cells",
  "T1 sequence (Q99500 whole entry)": "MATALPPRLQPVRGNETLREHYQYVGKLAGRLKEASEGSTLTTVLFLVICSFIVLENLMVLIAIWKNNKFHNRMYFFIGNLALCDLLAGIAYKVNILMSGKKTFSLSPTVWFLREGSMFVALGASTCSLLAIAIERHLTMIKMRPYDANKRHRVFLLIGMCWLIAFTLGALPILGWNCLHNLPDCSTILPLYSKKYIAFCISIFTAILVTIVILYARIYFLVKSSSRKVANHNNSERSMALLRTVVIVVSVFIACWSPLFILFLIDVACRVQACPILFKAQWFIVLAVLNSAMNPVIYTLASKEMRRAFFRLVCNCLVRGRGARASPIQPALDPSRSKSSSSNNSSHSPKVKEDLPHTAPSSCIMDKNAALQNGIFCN",
  "experiment": "PAI-1 levels (ELISA) in supernatants of treated human TM cell cultures, Edg3 receptor antagonism",
  "format": "cell-based",
  "settings": "human trabecular meshwork cell cultures, 24 hours",
  "experimental": "FIG. 2A and FIG. 2B. Human trabecular meshwork cell cultures were treated with (open circles) or without (closed circles) the Edg3 receptor subtype antagonist CAY10444 in the presence of various amounts of the endogenous Edg receptor agonist S1P (FIG. 2A) or in the presence of various amounts of FTY720, a structural analog of SIP (FIG. 2B). Twenty-four hours later, the levels of the secreted PAI-1 protein were then determined by ELISA of supernatant aliquots from the treated cultures as cited in Example 2.\nThe effect of Edg3 receptor antagonism on expression of extracellular matrix-related proteins by cultured human trabecular meshwork cells is determined as follows. […] Levels of extracellular matrix-related proteins, such as fibronectin, plasminogen activator inhibitor I (PAI-1), collagens, fibrillin, vitronectin, laminin, thrombospondin I, proteoglycans, or integrins, are then measured in each cell culture group via standard enzyme-linked immunoabsorbent assays (ELISA). […]\nAn example of the effect of Edg3 receptor antagonism on PAI-1 levels in supernatants from treated human TM cell cultures is shown in FIG. 2A and FIG. 2B. […] Twenty-four hours later, the levels of the secreted PAI-1 protein were then determined by ELISA of supernatant aliquots from the treated cultures.",
  "data": [
    {"compound": "CCCCCCCCCCCC1N[C@H](C(=O)O)CS1", "note": "(some centres unmarked) [CAY10444]", "values": [
      {"measurement": "antagonism of FTY720 effect on secreted PAI-1 protein level", "setting": "various amounts of FTY720, ELISA of supernatant (FIG. 2B)", "result": "potently and efficaciously antagonized"},
      {"measurement": "antagonism of S1P effect on secreted PAI-1 protein level", "setting": "various amounts of S1P, ELISA of supernatant (FIG. 2A)", "result": "potently and efficaciously antagonized"}
    ]}
  ]
}
